Source: article PMC6563716 (Helvetica Chimica Acta, 2019)

Biological target: T1, human 15-lipoxygenase-1 (15-LOX-1) (Homo sapiens, UniProt P16050)
T1 sequence (P16050 2-662): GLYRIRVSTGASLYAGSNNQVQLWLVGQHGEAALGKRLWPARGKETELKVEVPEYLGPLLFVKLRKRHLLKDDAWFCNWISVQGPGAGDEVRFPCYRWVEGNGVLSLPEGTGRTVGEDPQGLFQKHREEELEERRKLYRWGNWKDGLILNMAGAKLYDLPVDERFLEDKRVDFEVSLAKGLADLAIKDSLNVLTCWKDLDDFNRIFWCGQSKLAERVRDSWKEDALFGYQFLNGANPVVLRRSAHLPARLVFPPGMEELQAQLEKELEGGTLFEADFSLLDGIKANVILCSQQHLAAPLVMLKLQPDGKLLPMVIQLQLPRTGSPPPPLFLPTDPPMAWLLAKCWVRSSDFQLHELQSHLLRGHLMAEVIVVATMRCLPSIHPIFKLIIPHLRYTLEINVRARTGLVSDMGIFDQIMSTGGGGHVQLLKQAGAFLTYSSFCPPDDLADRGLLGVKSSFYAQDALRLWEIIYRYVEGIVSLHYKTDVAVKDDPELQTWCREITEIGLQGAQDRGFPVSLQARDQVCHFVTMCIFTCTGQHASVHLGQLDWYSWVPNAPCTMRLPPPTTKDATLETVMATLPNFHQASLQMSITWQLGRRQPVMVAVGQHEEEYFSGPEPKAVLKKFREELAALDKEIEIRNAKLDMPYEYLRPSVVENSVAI
Assay: UV absorption assay
Type: biochemical

| SMILES | IC50 |
| --- | --- |
| CC(C)CCCC(C)CC(=O)NN=Cc1cccs1 (racemic) [compound 2, 3,7‐Dimethyl‐N′‐(thiophen‐2‐ylmethylene)octanehydrazide] | 59 ± 7 µM |
| COc1cc(C=NNC(=O)CC(C)CCCC(C)C)ccc1O (racemic) [compound 4, N ′‐[(4‐Hydroxy‐3‐methoxyphenyl)methylidene]‐3,7‐dimethyloctanehydrazide] | 42 ± 4 µM |
| CC(C)CCCC(C)CC(=O)NN=Cc1cccnc1 (racemic) [compound 17, 3,7‐Dimethyl‐N′‐[(pyridin‐3‐yl)methylidene]octanehydrazide] | 16 ± 6 µM |
